This assay addresses T1, NK1-Rezeptor (Substanz P-Rezeptor) (Homo sapiens, UniProt P25103).
T1 construct: expressed in transfected cells; host or cells: human lymphoblastoma cells IM-9
Description: Receptor affinity for the NK1 receptor: displacement of 125I-labelled substance P on IM-9 cells. It counts as binding. The conditions noted are these: humane Lymphoblastoma-Zellen (IM-9) mit klonierten NK1-Rezeptoren; Verdrängung von 125J-markierter Substanz P; read-out: IC50-Werte. The procedure:
Die Rezeptoraffinität zum NK1-Rezeptor (Substanz P-Rezeptor) wurde an humanen Lymphoblastoma-Zellen (IM-9) mit klonierten NK1-Rezeptoren bestimmt, wobei die Verdrängung von ^125J-markierter Substanz P gemessen wird. Die so erhaltenen IC50-Werte betragen: Verb. A : 60 nM Verb. B : 21 nM Verb. C : 90 nM Verb. D : 45 nM [drawing 26]
For orientation: Loss of bound radioactivity is the signal in a displacement assay; it reports binding, not function.

SMILES strings stand for the structures.

T1 sequence (P25103 whole entry): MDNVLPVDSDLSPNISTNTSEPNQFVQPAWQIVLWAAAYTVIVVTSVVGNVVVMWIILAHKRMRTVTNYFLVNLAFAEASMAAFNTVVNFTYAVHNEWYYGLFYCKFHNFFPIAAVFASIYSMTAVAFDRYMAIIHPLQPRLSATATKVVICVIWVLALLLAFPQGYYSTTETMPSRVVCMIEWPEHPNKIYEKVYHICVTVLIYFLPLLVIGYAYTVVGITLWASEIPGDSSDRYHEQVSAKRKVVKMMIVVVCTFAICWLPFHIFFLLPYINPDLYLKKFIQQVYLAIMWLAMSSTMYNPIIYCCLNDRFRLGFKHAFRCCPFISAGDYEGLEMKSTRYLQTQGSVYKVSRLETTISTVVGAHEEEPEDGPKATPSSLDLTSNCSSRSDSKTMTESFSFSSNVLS

Broadly, the IC50 is the concentration at which inhibition is half-maximal. As to `CN(Cc1ccccc1)C(=O)[C@H](CC1CCCCC1)NC(=O)[C@@H]1C[C@@H](O)CN1C(=O)c1c[nH]c2ccccc12` [Verb. D], the 50% inhibitory concentration (IC50) worked out at 0.045 µM. For `CN(Cc1ccccc1)C(=O)[C@H](Cn1cccc1)NC(=O)[C@@H]1C[C@@H](O)CN1C(=O)c1c[nH]c2ccccc12` [Verb. A] the value was 0.06 µM; for `CN(Cc1ccccc1)C(=O)[C@H](COCc1ccccc1)NC(=O)[C@@H]1C[C@@H](O)CN1C(=O)c1c[nH]c2ccccc12` [Verb. B], 0.021 µM.

These data come from patent EP0979827A1, “Peptides having tachykinin antagonist activity, a process for preparation thereof and pharmaceutical compositions comprising the same” (Boehringer Ingelheim Pharma KG, priority 1992, dated 1994).
